Experiments:
MDA-MB-468 = experiment: Cell culture and cytotoxicity assay (CTG), MDA-MB-468; assay type: cell-based, human
Description: The assayed compounds each was dissolved in DMSO with a final concentration of 10 mM or 40 mM and stored at −20° C. Tumor cell lines A549 (7,000 cells/well), BT474 (12,000 cells/well), MDA-MB-468 (12,000 cells/well), and HCC1937 (6,000 cells/well) were seeded on 96-well plates. And the cells were pre-incubated at 37° C./5% CO2 for 24 hours. The cells were exposed to different concentrations of the assay compounds (from 400 μM to 782 nM, from 200 μM to 391 nM, from 100 μM to 196 nM, and from 50 μM to 98 nM) for the following time:
After incubation, 100 μL from each well was discarded and CTG base (Proega, G7571, 50 μL) was added and the mixture was agitated for 2 minutes. The mixtures were stored in a dark room for 10 minutes and the viability was analyzed with Multiskan microplate reader.

BT-474 = experiment: Cytotoxicity assay by the CTG method, BT-474; assay type: cell-based; details: Homo sapiens, BT-474, Breast cancer, 72 h
Description: (§1) The corresponding cells were harvested from flask into cell culture medium and the cell number were counted. The cells were diluted with culture medium to the desired density and 40 μL of cell suspension was added into each well of 384-well cell culture plate as designated. The plates were covered with lid and placed in room temperature for 30 minutes without shaking and then were transferred plates into 37° C. 5% CO2 incubator overnight for cell attachment.
(§2) Compound preparation and treatment: Test compounds were received or dissolved at 30 mM stock solution and control compound Staurosporine was stored as 10 mM and 1 mM concentration. 45 uL of stock solution was transferred to a 384 pp-plate. 3 fold, 10-point dilution were performed via transferring 15 uL compound into 30 μL DMSO by using TECAN (EVO200) liquid handler. The plates were spun at room temperature at 1,000 RPM for 1 minute and shaken at a plate shaker for 2 minutes. […]
(§3) The plate from incubators were placed and equilibrated at room temperature for 15 minutes. […] 40 μL of CellTiter-Glo reagent were transferred into each well to be detected (at 1:1 to culture medium). Then the plates were placed at room temperature for 30 min followed by reading on EnSpire.
(§4) The inhibition activity was calculated following the formula below: […]
(§5) The IC50 were calculated by fitting the Curve using Xlfit (v5.3.1.3): […]

ZR-75-1 = experiment: Cytotoxicity assay by the CTG method, ZR-75-1; assay type: cell-based; details: Homo sapiens, ZR-75-1, Breast cancer, 72 h
Description: as §1, §2, §3, §4, §5

COLO205 = experiment: Cytotoxicity assay by the CTG method, COLO205; assay type: cell-based; details: Homo sapiens, COLO 205, COLO205, Colon cancer, 72 h
Description: as §1, §2, §3, §4, §5

HT29 = experiment: Cytotoxicity assay by the CTG method, HT29; assay type: cell-based; details: Homo sapiens, HT-29, HT29, Colon cancer, 72 h
Description: as §1, §2, §3, §4, §5

A498 = experiment: Cytotoxicity assay by the CTG method, A498; assay type: cell-based; details: Homo sapiens, A498, Kidney cancer, 72 h
Description: as §1, §2, §3, §4, §5

CaKi-1 = experiment: Cytotoxicity assay by the CTG method, CaKi-1; assay type: cell-based; details: Homo sapiens, CaKi-1, Kidney cancer, 72 h
Description: as §1, §2, §3, §4, §5

MOLT4 = experiment: Cytotoxicity assay by the CTG method, MOLT4; assay type: cell-based; details: Homo sapiens, MOLT-4, MOLT4, Leukemia, 72 h
Description: as §1, §2, §3, §4, §5

Calu-6 = experiment: Cytotoxicity assay by the CTG method, Calu-6; assay type: cell-based; details: Homo sapiens, Calu-6, Lung cancer, 72 h
Description: as §1, §2, §3, §4, §5

WM-266-4 = experiment: Cytotoxicity assay by the CTG method, WM-266-4; assay type: cell-based; details: Homo sapiens, WM-266-4, Melanoma, 72 h
Description: as §1, §2, §3, §4, §5

SK-MEL-3 = experiment: Cytotoxicity assay by the CTG method, SK-MEL-3; assay type: cell-based; details: Homo sapiens, SK-MEL3, SK-MEL-3, Melanoma, 72 h
Description: as §1, §2, §3, §4, §5

SK-OV-3 = experiment: Cytotoxicity assay by the CTG method, SK-OV-3; assay type: cell-based; details: Homo sapiens, SK-OV-3, Ovarian cancer, 72 h
Description: as §1, §2, §3, §4, §5

[1] = test system: MDA-MB-468 cells (human breast cancer) implanted in BALB/c-nu mice; experiment: In vivo xenograft study, MDA-MB-468, tumor sizes; details: MDA-MB-468 xenograft in BALB/c-nu mice, FIGS. 2 and 4
Description: MDA-MB-468 cells (human breast cancer) in its log growth phase were implanted in BALB/c-nu mice. When the tumor volume was approximately 50-150 mm^3, the mice were randomized into four groups, each include 8 mice. The four groups were treated with vehicle, Ref. 1, 4f, and Ref. 2, respectively, and the tumor sizes were measured two to three times each week and the mice were also weighted.

## Cc1ccc(S(=O)(=O)Nc2nc3ccccc3nc2Nc2ccc3nsnc3c2)cc1F [Compound 4f, N-[3-(benzo[1,2,5]thiadiazol-5-ylamino)-quinoxalin-2-yl]-3-fluoro-4-methyl-benzenesulfonamide]
MDA-MB-468; Homo sapiens, MDA-MB-468, exposure 72 hours, CTG
  IC50: 781 to 1560 nM
MDA-MB-468; MDA-MB-468 cytotoxicity, versus Ref. 1, Ref. 3, XL147-A, BEZ235
  anticancer activity compared with known compounds (FIG. 1): much better anticancer activity than any of the known compounds
BT-474
  IC50: 7.01 µM
ZR-75-1
  IC50: 1.53 µM
COLO205
  IC50: 2.99 µM
HT29
  IC50: 2.44 µM
A498
  IC50: 3.68 µM
CaKi-1
  IC50: 13 µM
MOLT4
  IC50: 4.72 µM
Calu-6
  IC50: 4.89 µM
WM-266-4
  IC50: 9.1 µM
SK-MEL-3
  IC50: 9.06 µM
SK-OV-3
  IC50: 9.37 µM
[1]
  anticancer activity (tumor sizes) versus vehicle: significant anticancer activities
